Data as given in patent US11214803B2, “Modulators of YAP1 expression” (Ionis Pharmaceuticals, Inc., priority 2019, dated 2022).
Strand notation (5' to 3'): a small letter for the sugar, then the base; units joined by * are phosphorothioate-linked, units joined directly phosphodiester-linked; [ ] holds rarer units or linkages, { } end groups; capitals alone tell only the bases. e = 2'-O-(2-methoxyethyl) (MOE); k = constrained ethyl (cEt); [5mC] = 5-methylcytosine; d = 2'-deoxy (DNA); m = 2'-O-methyl

What was measured:
Yap1 mRNA [1] = assay: Dose-dependent inhibition of human Yap1 in A-431 cells (Example 6, 5,000 cells per well, RTS4814); assay type: cell-based; conditions: Table 54, A-431 cells
Summary of the method: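 A-431 cells (5,000/well) took up oligonucleotides by free uptake at various doses for about 48 h. Yap1 mRNA was measured by RT-PCR (RTS4814), normalised to RIBOGREEN total RNA and expressed as % untreated control; IC50 by linear regression on a log/linear plot.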

Yap1 mRNA [2] = assay: Dose-dependent inhibition of human Yap1 in A-431 cells (Example 7, 10,000 cells per well, RTS36584); assay type: cell-based; conditions: free uptake, approximately 48 hours; for Yap1 mRNA, % UTC: A-431 cells, 10,000 cells per well
Summary of the method: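 Yap1 mRNA was expressed as percent of untreated control after normalization to total RNA (RIBOGREEN), and IC50 was derived by log/linear linear regression. The read-out used primer-probe set RTS36584 roughly 48 hours after free-uptake dosing of oligonucleotides into A-431 cells (10,000 cells/well).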

[3] = Tolerability in CD-1 mice, body and organ weights (Example 15); assay type: in vivo; conditions: male CD-1 mice, 50 mg/kg s.c. twice a week for four weeks (8 treatments), end of study (day 26)
Protocol: (§1) Groups of four male CD-1 mice at 4-5 weeks of age (obtained from Charles River) were injected subcutaneously twice a week for four weeks (for a total of 8 treatments) with 50 mg/kg of modified oligonucleotides. One group of male CD-1 mice was injected with PBS. Mice were euthanized on day 26 post start of treatment (24 hrs following the final administration).
(§2) Body weights of CD-1 mice were measured at the end of the study, and the average body weight for each group is presented in the table below. Modified oligonucleotides that caused any changes in organ weights outside the expected range for modified oligonucleotides were excluded from further studies.

[4] = Tolerability in Balb/c mice, body and organ weights (Example 11); assay type: in vivo; conditions: 50 mg/kg subcutaneously twice a week for four weeks, end of study
Protocol: as §1, with “of” for “of four”, “Balb/c” for “CD-1”, “4-6” for “4-5”, “Taconic)” for “Charles River)”, “hours” for “hrs”
as §2, with “Balb/c” for “CD-1”

[5] = Tolerability in CD-1 mice, plasma chemistry markers (Example 15); assay type: in vivo; conditions: male CD-1 mice, 50 mg/kg s.c. twice a week for four weeks (8 treatments), day 26
Protocol: CD-1 mice were treated with modified oligonucleotides selected from studies described above and evaluated for changes in the levels of various plasma chemistry markers.
as §1

[6] = Tolerability in Balb/c mice, plasma chemistry markers (Example 11); assay type: in vivo; conditions: 50 mg/kg subcutaneously twice a week for four weeks
Protocol: Balb/c mice were treated with modified oligonucleotides selected from studies described above and evaluated for changes in the levels of various plasma chemistry markers.
as §1, with “of” for “of four”, “Balb/c” for “CD-1”, “4-6” for “4-5”, “Taconic)” for “Charles River)”, “hours” for “hrs”

Yap1 mRNA [7] = assay: Dose-dependent inhibition of human Yap1 in SNU-449 cells (Example 9, RTS36584); assay type: cell-based; conditions: free uptake; for % UTC (Yap1 mRNA): approximately 48 hours; for IC50: linear regression on a log/linear plot
Summary of the method: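 Read-out was Yap1 mRNA (primer-probe RTS36584) normalised to total RNA by RIBOGREEN, given as % of untreated cells, with IC50 fitted by linear regression of log/linear data. Oligonucleotides were dosed by free uptake to SNU-449 cells, 10,000/well, for ~48 h.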

Yap1 mRNA [8] = assay: Inhibition of human Yap1 mRNA in SNU449 hepatocellular carcinoma xenograft tumors (Example 26); assay type: in vivo; conditions: SNU449 xenografts in NSG mice, 50 mg/kg twice weekly for five days, relative to PBS treated animals
Protocol: A SNU449 hepatocellular carcinoma xenograft tumor model was used to evaluate activity of modified oligonucleotides targeted to human Yap1. Ten million SNU449 cells in 30% matrigel were implanted subcutaneously into the flanks of female NOD Cg-Prkdcscid ll2rgtm1Wjl/SzJ (NSG) mice (from Jackson Laboratory) at 4-6 weeks of age. When tumors reached an average volume of 100 mm^3, approximately two weeks post-implantation, groups of four mice each were administered at 50 mg/kg twice weekly with modified oligonucleotides for five days. Tumors were collected and tested for Yap1 mRNA knockdown by RT-qPCR. Yap1 mRNA levels were measured as previously described using the Human Yap1 primer-probe set RTS4814. Yap1 mRNA levels were normalized to actin-beta content, as measured by primer probe set RTS5002. Results are presented in the tables below as percent control of the amount of Yap1 mRNA relative to PBS treated animals (% control).

716454 (antisense k[5mC]*kG*kA*dG*dA*dT*dT*dT*dA*dA*dA*dT*dA*kA*kG*kG) [compound 716454]
IC50 (Yap1 mRNA [1]; Yap1 mRNA, linear regression on a log/linear plot): 2600 nM | % UTC 148 nM (Yap1 mRNA [1]; free uptake, 148 nM, approximately 48 hours, RTS4814): 91 % UTC | % UTC 444 nM (Yap1 mRNA [1]; free uptake, 444 nM, approximately 48 hours, RTS4814): 71 % UTC | % UTC 1333 nM (Yap1 mRNA [1]; free uptake, 1333 nM, approximately 48 hours, RTS4814): 54 % UTC | % UTC 4000 nM (Yap1 mRNA [1]; free uptake, 4000 nM, approximately 48 hours, RTS4814): 48 % UTC | Yap1 mRNA, % UTC (Yap1 mRNA [2]; 15.6 nM): 84 % UTC | Yap1 mRNA, % UTC (Yap1 mRNA [2]; 62.5 nM): 39 % UTC | Yap1 mRNA, % UTC (Yap1 mRNA [2]; 4000.00 nM): 6 % UTC | IC50 (Yap1 mRNA [2]; A-431 cells, linear regression on log/linear plot): 100 nM | Kidney weight [3]: 0.55 g | Liver weight [3]: 2.31 g | Spleen weight [3]: 0.20 g | body weight [3]: 38 g | Kidney weight [4]: 0.42 g | Liver weight [4]: 1.48 g | Spleen weight [4]: 0.14 g | body weight [4]: 25 g | ALB [5]: 2.3 g/dL | ALT [5]: 44 U/L | AST [5]: 56 U/L | ALT [6]: 39 U/L | AST [6]: 60 U/L | BUN [6]: 14 mg/dL | TBIL [6]: 0.18 mg/dL

1198501 (kG*kA*dT*dT*dT*dA*dG*dG*dA*dT*dG*e[5mC]*kA*eT*kG*eG; antisense) [compound 1198501]
% UTC (Yap1 mRNA) (Yap1 mRNA [7]; 31.3 nM): 65 % UTC | % UTC (Yap1 mRNA) (Yap1 mRNA [7]; 125.0 nM): 36 % UTC | % UTC (Yap1 mRNA) (Yap1 mRNA [7]; 500.0 nM): 17 % UTC | % UTC (Yap1 mRNA) (Yap1 mRNA [7]; 2000.00 nM): 11 % UTC | IC50 (Yap1 mRNA [7]): 100 nM | Yap1 mRNA in tumors, % control (Yap1 mRNA [8]): 54 % control

1197269 (kT*kA*kA*dA*mG*dT*dG*dT*dA*dT*dG*dT*d[5mC]*kA*kG*kA; antisense) [compound 1197269]
% UTC (Yap1 mRNA) (Yap1 mRNA [7]; 31.3 nM): 48 % UTC | % UTC (Yap1 mRNA) (Yap1 mRNA [7]; 125.0 nM): 21 % UTC | % UTC (Yap1 mRNA) (Yap1 mRNA [7]; 500.0 nM): 7 % UTC | % UTC (Yap1 mRNA) (Yap1 mRNA [7]; 2000.00 nM): 1 % UTC | IC50 (Yap1 mRNA [7]): < 30 nM | Yap1 mRNA in tumors, % control (Yap1 mRNA [8]): 57 % control
